# What was measured:
# femora [1] = assay: Dry weight of femora, Example 2; format: in vivo, rat
# Description: (§1) 2. CPP-administered group: Basic feed+CPP (40 mg/100 g body weight)
# (§2) 3. Genistein-administered group: Basic feed+genistein (50 μg/100 g body weight)
# (§3) 4. CPP+genistein-administered group: Basic feed+CPP (40 mg/100 g body weight)+genistein (50 μg/100 g body weight)
# (§4) As the CPP, a solution of CPP-III (casein phosphopeptide content 85%) manufactured by Meiji Seika Kaisha, Ltd., dissolved in distilled water was used. As the genistein, a reagent (manufactured by Sigma Chemical Company in U.S. A.) extracted from soybean and highly purified, dissolved in a 10% ethanol solution was used.
# Animal groups each consisting of five animals were fed with the basic feed under constant temperature and constant humidity conditions of room temperature 25° C., and 55% humidity. […]
# (§5) After washing the extracted femora in a cold 0.25 M sucrose solution to remove a soft tissue and drying it in a drier at 100° C. for about 16 hours, the dry weight of the femora was measured. After the measurement, the extracted femora were divided into diaphysis (cortical bone) and metaphysis (trabecular bone) and the amount of calcium in each of them was measured. […] The solutions were used as sample solutions and the amount of calcium therein was determined by using an atomic absorption spectrophotometer. […]
# (§6) Significant tests of respective measured values were performed by using Student's t-test. […]
# osteoblasts = conditions: Res. Exp. Med. 197: 101-107, 1997; cited from earlier work
# femora [2] = assay: Amount of DNA in femora, Example 1; format: in vivo, rat; conditions: 5-weeks old rats
# Description: (§7) 5-weeks old female Wistar rats (Convention) obtained from Japan SLC, Inc. (Hamamatsu, Japan) were used. 2. CPP-administered group: Basic feed+CPP (40 mg/100 g body weight) 3. Genistein-administered group: Basic feed+genistein (50 μg/100 g body weight) 4. CPP+genistein-administered group: Basic feed+CPP (40 mg/100 g body weight)+genistein (50 μg/100 g body weight) As the CPP, a solution of CPP-III (casein phosphopeptide content 85%) manufactured by Meiji Seika Kaisha, Ltd., dissolved in distilled water was used. As the genistein, a reagent (manufactured by Sigma Chemical Company in U.S. A.) extracted from soybean and highly purified, dissolved in a 10% ethanol solution was used. Animal groups each consisting of five animals were fed with the basic feed under constant temperature and constant humidity conditions of room temperature 25° C., and 55% humidity. In addition, the control group was administered with 1 ml/100 g body weight of purified distilled water and the other groups were each orally administered with CPP and/or genistein in the above-mentioned amounts once a day for 14 days by using a stomach tube. After 24 hours from the last administration, the rats were sacrificed and the femora were extracted. The extracted femora were used for the measurement of bone components as shown below. The diaphysial tissue and metaphysial tissue of the femora thus obtained were each crushed in 4.0 ml of a cold 0.1 N NaOH solution after homogenization of the bone tissue, shaken at 4° C. for 24 hours and extracted. After the alkali extraction, centrifugation treatment was performed at 1,000×g for 5 minutes and the supernatant fraction was used as a sample for the measurement of DNA. The measurement of the amount of DNA was performed in accordance with the method of Ceriotti (J. Biol. Chem., 214: 39-77, 1955). To a test tube containing 2.0 ml of a sample were added 1.0 ml of concentrated hydrochloric acid and 1.0 ml of a 0.04% indole solution and the test tube was shut with an aluminum cap, followed by heating on a boiling water bath for 10 minutes and then quenched on ice to terminate the reaction. Extraction with 4.0 ml of chloroform for 3 to 4 minutes was repeated several times and the amount of DNA was measured on a spectrophotometer (490 nm). The amount of DNA was calculated per wet weight (g) of bone tissue. Significant tests of respective measured values were performed by using Student's t-test. Values with a risk factor of 5% or less were taken as significant.
# femora [3] = assay: Amount of calcium in femora, Example 2; format: in vivo, rat; conditions: 50-weeks old rats
# Description: as §1, §2, §3, §4
# (§8) Animal groups each consisting of five animals were fed with the basic feed under constant temperature and constant humidity conditions of room temperature 25° C., and 55% humidity. In addition, the control group was administered with 1 ml/100 g body weight of purified distilled water and the other groups were each orally administered with CPP and/or genistein in the above-mentioned amounts once a day for 14 days by using a stomach tube. After 24 hours from the last administration, the rats were sacrificed and the femora were extracted. The extracted femora were used for the measurement of bone components as shown below.
# (§9) After washing the extracted femora in a cold 0.25 M sucrose solution to remove a soft tissue and drying it in a drier at 100° C. for about 16 hours, the dry weight of the femora was measured. After the measurement, the extracted femora were divided into diaphysis (cortical bone) and metaphysis (trabecular bone) and the amount of calcium in each of them was measured. That is, the obtained diaphysial tissue and metaphysial tissue of the femora were each charged in a test tube, to which was added 3 ml of concentrated nitric acid to decompose them at 120° C. for 24 hours. The solutions were used as sample solutions and the amount of calcium therein was determined by using an atomic absorption spectrophotometer. The amounts of calcium were expressed in terms of mg per 1 g of the dry weight of the bone tissue.
# (§10) Significant tests of respective measured values were performed by using Student's t-test. Values with a risk factor of 5% or less were taken as significant.
# 1) The materials and methods in Example 2 were the same as in Example 1 except that 50-weeks old normal female Wistar rats obtained from Japan SLC, Inc. (Hamamatsu, Japan) were used as test animals.
# femora [4] = assay: Dry weight of femora, Example 1; format: in vivo, rat
# Description: (§11) 5-weeks old female Wistar rats (Convention) obtained from Japan SLC, Inc. (Hamamatsu, Japan) were used.
# as §1, §2, §3
# As the CPP, a solution of CPP-III (casein phosphopeptide content 85%) manufactured by Meiji Seika Kaisha, Ltd., dissolved in distilled water was used. As the genistein, a reagent (manufactured by Sigma Chemical Company in U.S. A.) extracted from soybean and highly purified, dissolved in a 10% ethanol solution was used. […]
# as §5, §6
# femora [5] = assay: Amount of DNA in femora, Example 2; format: in vivo, rat; conditions: 50-weeks old rats
# Description: as §7, with “2.” for “5-weeks old female Wistar rats (Convention) obtained from Japan SLC, Inc. (Hamamatsu, Japan) were used. 2.”, “significant. 1) The materials and methods in Example 2 were the same as in Example 1 except that 50-weeks old normal female Wistar rats obtained from Japan SLC, Inc. (Hamamatsu, Japan) were used as test animals.” for “significant.”
# femora [6] = assay: Amount of calcium in femora, Example 1; format: in vivo, rat; conditions: 5-weeks old rats
# Description: as §11, §1, §2, §3, §4, §8, §9, §10
# [7] = system: bone alkaline phosphatase; assay: Activity of femoral alkaline phosphatase, Example 2; format: in vivo, rat; conditions: 50-weeks old rats
# Description: as §1, §2, §3, §4, §8
# (§12) The diaphysial tissue and metaphysial tissue of the femora obtained as described above were each dipped in 3 ml of a cold 6.5 mM barbital buffer (pH 7.4) and cut into small pieces and homogenized by using a Potter-Elvehjem homogenizer followed by ultrasonic treatment for 60 seconds for crushing. Further, the homogenate was centrifuged for 5 minutes at 600×g and the supernatant fraction was used as a crude enzyme solution.
# (§13) The activity of bone alkaline phosphatase was measured in accordance with the method of Walter and Schutt (Bergmeyer H. U. (ed.). Methods of Enzymatic Analysis, Vol. 1-2, Academic Press, New York, pp. 856-860, 1974). The enzymatic reaction was initiated by adding 0.05 ml of the above-mentioned crude enzyme solution to 2 ml of 0.1M diethanolamine hydrochloride buffer (pH 9.8) containing disodium p-nitrophenyiphosphate as a substrate. The reaction was performed by incubation at 37° C. for 30 minutes. The reaction was terminated by adding 10 ml of 0.05N NaOH and the activity was expressed in terms of the amount (μmol) of free p-nitrophenol per 1 minute per the mass (mg) of the enzyme protein used. The concentration of the protein was measured in accordance with the method of Lowry et al. (J. Biol. Chem., 193: 265-273, 1951).
# Significant tests of respective measured values were performed by using Student's t-test. Values with a risk factor of 5% or less were taken as significant. […]
# [8] = system: bone alkaline phosphatase; assay: Activity of femoral alkaline phosphatase, Example 1; format: in vivo, rat; conditions: 5-weeks old rats
# Description: as §11, §1, §2, §3, §4, §8, §12, §13, §10
# osteoclasts [9] = conditions: Biol. Pharm. Bull., 22, 805-809, 1999; cited from earlier work
# osteoclasts [10] = conditions: culture system using metaphysial tissue in the femora of old rats; Biochem. Pharmacol., 55: 71-76, 1998; cited from earlier work
compound,measurement,setting,value
"O=c1c(-c2ccc(O)cc2)coc2cc(O)cc(O)c12 [Genistein, genistein]",Dry weight of femora,"femora [1]; 50-weeks old female Wistar rats, oral once a day for 14 days, CPP 40 mg/100 g, genistein 50 μg/100 g body weight",475.3 ± 8.35 mg
same,Dry weight of femora as compared with that of the control group,"femora [1]; 50-weeks old rats, oral 14 days",1.08 times
same,Amount of DNA (index of increase in bone mineral content and cell growth by osteoblasts),osteoblasts,causes an increase in the amount of DNA
same,Amount of DNA in the diaphysis as compared with that of the control group,femora [2]; diaphysis,1.06 times
same,Amount of DNA in the metaphysis as compared with that of the control group,femora [2]; metaphysis,1.09 times
same,"Amount of DNA, Diaphysis","femora [2]; oral 14 days, diaphysis",1.895 ± 0.013 mg/g wet weight of bone
same,"Amount of DNA, Metaphysis","femora [2]; oral 14 days, metaphysis",2.894 ± 0.034 mg/g wet weight of bone
same,Amount of calcium in the diaphysis as compared with that of the control group,femora [3]; diaphysis,1.07 times
same,Amount of calcium in femora in the metaphysis as compared with that of the control group,femora [3]; metaphysis,1.08 times
same,"Amount of bone calcium, Diaphysis","femora [3]; oral 14 days, diaphysis",229.2 ± 3.4 mg/g dry weight
same,"Amount of bone calcium, Metaphysis","femora [3]; oral 14 days, metaphysis",202.1 ± 3.8 mg/g dry weight
same,Dry weight of femora,"femora [4]; 5-weeks old female Wistar rats, oral once a day for 14 days, CPP 40 mg/100 g, genistein 50 μg/100 g body weight",230.4 ± 1.20 mg
same,Dry weight of femora as compared with that of the control group,"femora [4]; 5-weeks old rats, oral 14 days",1.12 times
same,Amount of DNA in the diaphysis as compared with that of the control group,femora [5]; diaphysis,1.14 times
same,Amount of DNA in the metaphysis as compared with that of the control group,"femora [5]; metaphysis, printed under [Amount of DNA in Femora]",1.05 times
same,"Amount of DNA, Diaphysis","femora [5]; oral 14 days, diaphysis",1.391 ± 0.043 mg/g wet weight of bone
same,"Amount of DNA, Metaphysis","femora [5]; oral 14 days, metaphysis",2.836 ± 0.041 mg/g wet weight of bone
same,Amount of calcium in the diaphysis as compared with that of the control group,femora [6]; diaphysis,1.12 times
same,Amount of calcium in the metaphysis as compared with that of the control group,femora [6]; metaphysis,1.07 times
same,"Bone calcium, Diaphysis","femora [6]; oral 14 days, diaphysis",225.1 ± 3.23 mg/g dry weight
same,"Bone calcium, Metaphysis","femora [6]; oral 14 days, metaphysis",204.1 ± 3.56 mg/g dry weight
same,Activity of femoral alkaline phosphatase in the diaphysis as compared with that of the control group,[7]; diaphysis,1.12 times
same,Activity of femoral alkaline phosphatase in the metaphysis as compared with that of the control group,[7]; metaphysis,1.12 times
same,"The activity of alkaline phosphatase, Diaphysis","[7]; oral 14 days, diaphysis",0.653 ± 0.019 μmol/min/mg protein
same,"The activity of alkaline phosphatase, Metaphysis","[7]; oral 14 days, metaphysis",0.744 ± 0.020 μmol/min/mg protein
same,Activity of femoral alkaline phosphatase in the diaphysis as compared with that of the control group,[8]; diaphysis,1.04 times
same,Activity of femoral alkaline phosphatase in the metaphysis as compared with that of the control group,[8]; metaphysis,1.04 times
same,"The activity of alkaline phosphatase, Diaphysis","[8]; oral 14 days, diaphysis",1.809 ± 0.014 μmol/min/mg protein
same,"The activity of alkaline phosphatase, Metaphysis","[8]; oral 14 days, metaphysis",1.853 ± 0.017 μmol/min/mg protein
same,"Effect of inhibiting the function of osteoclasts, potency relative to daidzein",osteoclasts [9],10 times
same,Bone resorption by osteoclasts,osteoclasts [10],directly inhibits the bone resorption by osteoclasts

# — patent publication US20030108619A1, “Bone-strengthening agents, food compositions for strengthening bone and feed compositions for strengthening bone” (priority 2000, published 2003)
